Data on 33 molecules can be found in patent US20110082130A1 (LIGAND PHARMACEUTICALS, INC., priority 2006, published 2011).

SMILES strings stand for the structures. Bounds are passed on as bounds.

In the first assay the target is T1, chimeric human H3 receptor (Homo sapiens, UniProt Q9Y5N1).
T1 construct: made in house; host or cells: Sf9 insect cells (baculovirus); P2 membrane preparation
T1 sequence (Q9Y5N1 with tags, fused parts or gaps): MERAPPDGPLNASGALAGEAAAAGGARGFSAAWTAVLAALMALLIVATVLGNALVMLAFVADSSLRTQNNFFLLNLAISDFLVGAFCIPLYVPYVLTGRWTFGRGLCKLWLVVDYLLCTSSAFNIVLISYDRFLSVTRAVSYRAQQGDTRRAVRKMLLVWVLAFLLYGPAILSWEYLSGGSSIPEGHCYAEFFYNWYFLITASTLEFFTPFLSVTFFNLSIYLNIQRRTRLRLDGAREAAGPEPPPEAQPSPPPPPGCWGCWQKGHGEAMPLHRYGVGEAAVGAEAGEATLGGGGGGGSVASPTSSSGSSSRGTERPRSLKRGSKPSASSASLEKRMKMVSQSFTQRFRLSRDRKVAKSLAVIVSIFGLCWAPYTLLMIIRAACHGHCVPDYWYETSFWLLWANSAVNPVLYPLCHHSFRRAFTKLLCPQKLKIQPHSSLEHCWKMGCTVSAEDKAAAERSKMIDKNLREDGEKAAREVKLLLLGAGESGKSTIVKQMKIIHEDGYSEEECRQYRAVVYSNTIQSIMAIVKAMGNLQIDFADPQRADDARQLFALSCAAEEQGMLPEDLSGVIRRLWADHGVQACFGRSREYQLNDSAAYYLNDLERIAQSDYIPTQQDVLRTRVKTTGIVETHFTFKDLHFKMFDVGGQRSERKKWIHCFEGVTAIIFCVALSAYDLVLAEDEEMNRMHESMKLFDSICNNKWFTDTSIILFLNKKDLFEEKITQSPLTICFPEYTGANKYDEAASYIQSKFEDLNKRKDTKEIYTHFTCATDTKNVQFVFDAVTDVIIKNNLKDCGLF
The assay is described as follows: Chimeric human H3 receptor GTP binding assay (agonist-stimulated GTP-gamma35S binding, Example 7). The assay is classed as biochemical. The following applies: Table I; P2 membranes of Sf9 cells, 1 μM histamine as agonist, Ki from IC50 by Cheng-Prusoff. In short, it runs like this:
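Sf9 membranes co-expressing chimeric human H3 receptor and heterotrimeric G-protein, 35 μg/tube, in pH 7.4 Tris buffer with 10 μM GDP. Test compounds (10^−10–10^−6 M) competed against 1 μM histamine, […] GTP-gamma35S, 60 min at room temperature. Filter-bound radioactivity counted; IC50 converted to Ki by Cheng-Prusoff. Agonism/inverse agonism tested without histamine (EC50).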
As usually defined, the Ki is the dissociation constant of the complex between target and ligand, obtained from inhibition or displacement. For `O=C(CN1CCc2cc(Br)ccc2C1c1ccccc1Cl)N1CCN(C2CCC2)CC1` (stereo not drawn) [Compound 63, 6-bromo-1-(2-chlorophenyl)-2-[2-(4-cyclobutylpiperazin-1-yl)-2-oxoethyl]-1,2,3,4-tetrahydroisoquinoline], the Ki was less than 1000 nM.
The same measure, in the same setting: to `CCC(=O)c1ccc2c(c1)CCN(CC(=O)N1CCN(C3CCC3)CC1)C2` [Compound 73, 1-{2-[2-(4-cyclobutylpiperazin-1-yl)-2-oxoethyl]-1,2,3,4-tetrahydroisoquinolin-6-yl}propan-1-one] belongs less than 1000 nM.

Staying with this assay, now noted: Table II "Ki", symbol *; assay of Example 7.
Turning to `COCCC1CCCN(c2ccc3c(n2)CCN(CC(=O)N2CCN(C4CCC4)CC2)C3)C1` (stereo not drawn) [Compound 674, 6-[2-(4-cyclobutylpiperazin-1-yl)-2-oxoethyl]-2-[3-(2-methoxyethyl)piperidin-1-yl]-5,6,7,8-tetrahydro-1,6-naphthyridine], the Ki is less than 1000 nM.
Still for that read-out and setting: the same measure for `CN(C)CCc1ccc(-c2ccc3c(c2)CCN(CC(=O)N2CCN(C4CCC4)CC2)C3)cc1` [Compound 645, 2-(4-{2-[2-(4-cyclobutylpiperazin-1-yl)-2-oxoethyl]-1,2,3,4-tetrahydroisoquinolin-6-yl}phenyl)-N,N-dimethylethanamine]: less than 1000 nM.
On to `O=C(CN1CCc2nc(NCC3CC3)ccc2C1)N1CCN(C2CCC2)CC1` [Compound 650, 6-[2-(4-cyclobutylpiperazin-1-yl)-2-oxoethyl]-N-(cyclopropylmethyl)-5,6,7,8-tetrahydro-1,6-naphthyridin-2-amine], for which the Ki is less than 1000 nM.

The assay is the same for the next values; noted with them: Table II; "*" = Ki in assay of Example 7 less than 1 micromolar.
Regarding `Cn1cc(-c2ccc3c(c2)CCN(CC(=O)N2CCN(C4CCC4)CC2)C3)cn1` [Compound 127, 2-[2-(4-cyclobutylpiperazin-1-yl)-2-oxoethyl]-6-(1-methyl-1H-pyrazol-4-yl)1,2,3,4-tetrahydroisoquinoline], the Ki is less than 1000 nM.
The same measure, in the same setting: the same measure for `CC(O)c1ccc2c(c1)CCN(CC(=O)N1CCN(C3CCC3)CC1)C2` (stereo not drawn) [Compound 219, 1-{2-[2-(4-cyclobutylpiperazin-1-yl)-2-oxoethyl]-1,2,3,4-tetrahydroisoquinolin-6-yl}ethanol]: less than 1000 nM; for `CC(C)Oc1ccc2c(c1)CCN(CC(=O)N1CCN(C3CCC3)CC1)C2` [Compound 197, 2-[2-(4-cyclobutylpiperazin-1-yl)-2-oxoethyl]-6-isopropoxy-1,2,3,4-tetrahydroisoquinoline]: less than 1000 nM.
The same measure, in the same setting: the same measure for `CCn1cc(-c2ccc3c(c2)CCN(CC(=O)N2CCN(C4CCC4)CC2)C3)ccc1=O` [Compound 280, 5-{2-[2-(4-cyclobutylpiperazin-1-yl)-2-oxoethyl]-1,2,3,4-tetrahydroisoquinolin-6-yl}-1-ethylpyridin-2(1H)-one]: less than 1000 nM.
For the molecule `O=C(CN1CCc2cc(-n3ncccc3=O)ccc2C1)N1CCN(C2CCC2)CC1` [Compound 193, 2-{2-[2-(4-cyclobutylpiperazin-1-yl)-2-oxoethyl]-1,2,3,4-tetrahydroisoquinolin-6-yl}pyridazin-3(2H)-one], the Ki was less than 1000 nM.
With `O=C(CN1CCc2cc(-c3cncnc3)ccc2C1)N1CCN2CCCCC2C1` (stereo not drawn) [Compound 151, 2-[(6-pyrimidin-5-yl-3,4-dihydroisoquinolin-2(1H)-yl)acetyl]octahydro-2H-pyrido[1,2-a]pyrazine], the Ki was less than 1000 nM.
The same measure, in the same setting: the same measure for `CC1CCCC1N1CCN(C(=O)CN2CCc3cc(-c4cccnn4)ccc3C2)CC1` (stereo not drawn) [Compound 191, 2-{2-[4-(2-methylcyclopentyl)piperazin-1-yl]-2-oxoethyl}-6-pyridazin-3-yl-1,2,3,4-tetrahydroisoquinoline]: less than 1000 nM; for `O=C(CN1CCc2cc(O)ccc2C1)N1CCN(C2CCC2)CC1` [Compound 195, 2-[2-(4-cyclobutylpiperazin-1-yl)-2-oxoethyl]-1,2,3,4-tetrahydroisoquinolin-6-ol]: less than 1000 nM; for `CC1CN(C(=O)CN2CCc3nc(-c4ccncc4)sc3C2)CCN1C1CCC1` (stereo not drawn) [Compound 114, 5-[2-(4-cyclobutyl-3-methylpiperazin-1-yl)-2-oxoethyl]-2-pyridin-4-yl-4,5,6,7-tetrahydro[1,3]thiazolo [5,4-c]pyridine]: less than 1000 nM.
For the molecule `O=C(CN1CCc2nn(-c3ccc(F)cc3)cc2C1)N1CCN(C2CCC2)CC1` [Compound 236, 5-[2-(4-cyclobutylpiperazin-1-yl)-2-oxoethyl]-2-(4-fluorophenyl)-4,5,6,7-tetrahydro-2H-pyrazolo[4,3-c]pyridine], the Ki was less than 1000 nM.
On the same count and under the same terms, the same measure for `O=C(CN1CCc2cc(-n3ncc4ccccc43)ccc2C1)N1CCN(C2CCC2)CC1` [Compound 230, 2-[2-(4-cyclobutylpiperazin-1-yl)-2-oxoethyl]-6-(1H-indazol-1-yl)-1,2,3,4-tetrahydroisoquinoline]: less than 1000 nM.
The same measure, in the same setting: the same measure for `CC1(N2CCN(C(=O)CN3CCc4cc(-c5cncnc5)ccc4C3)CC2)CCC1` [Compound 169, 2-{2-[4-(1-methylcyclobutyl)piperazin-1-yl]-2-oxoethyl}-6-pyrimidin-5-yl-1,2,3,4-tetrahydroisoquinoline]: less than 1000 nM; for `CC1CN(C(=O)CN2CCc3nc(-c4cscn4)sc3C2)CCN1C1CCC1` (stereo not drawn) [Compound 113, 5-[2-(4-cyclobutyl-3-methylpiperazin-1-yl)-2-oxoethyl]-2-(1,3-thiazol-4-yl)-4,5,6,7-tetrahydro[1,3]thiazolo [5,4-c]pyridine]: less than 1000 nM.
`O=C(CN1CCc2nc(N3CCCC3)ncc2C1)N1CCN(C2CCC2)CC1` [Compound 204, 6-[2-(4-cyclobutylpiperazin-1-yl)-2-oxoethyl]-2-pyrrolidin-1-yl-5,6,7,8-tetrahydropyrido[4,3-d]pyrimidine]: the Ki was less than 1000 nM.
Still for that read-out and setting: to `O=C(CN1CCc2cc(-c3nccs3)ccc2C1)N1CCN(C2CCC2)CC1` [Compound 120, 2-[2-(4-cyclobutylpiperazin-1-yl)-2-oxoethyl]-6-(1,3-thiazol-2-yl)-1,2,3,4-tetrahydroisoquinoline] belongs less than 1000 nM; to `O=C(CN1CCc2nc(N3CCOCC3)cnc2C1)N1CCN(C2CCC2)CC1` [Compound 240, 6-[2-(4-cyclobutylpiperazin-1-yl)-2-oxoethyl]-2-morpholin-4-yl-5,6,7,8-tetrahydropyrido[3,4-b]pyrazine], less than 1000 nM; to `O=C(CN1CCc2sccc2C1)N1CCN(C2CCC2)CC1` [Compound 265, 5-[2-(4-cyclobutylpiperazin-1-yl)-2-oxoethyl]-4,5,6,7-tetrahydrothieno[3,2-c]pyridine], less than 1000 nM.

Still in this assay, the particulars now being: assay of Example 7; "*" in Ki of Table II.
For `CS(=O)(=O)c1ccc(-c2ccc3c(c2)CCN(CC(=O)N2CCN(C4CCCC4)CC2)C3)cc1` [Compound 390, 2-[2-(4-cyclopentylpiperazin-1-yl)-2-oxoethyl]-6-[4-(methylsulfonyl)phenyl]-1,2,3,4-tetrahydroisoquinoline], the Ki was less than 1000 nM.
Still for that read-out and setting: the same measure for `COc1ccc(C)cc1-c1nc2c(s1)CN(CC(=O)N1CCN(C3CCC3)CC1)CC2` [Compound 344, 5-[2-(4-cyclobutylpiperazin-1-yl)-2-oxoethyl]-2-(2-methoxy-5-methylphenyl)-4,5,6,7-tetrahydro[1,3]thiazolo [5,4-c]pyridine]: less than 1000 nM; for `CCCCc1ccc(-c2nc3c(s2)CN(CC(=O)N2CCN(C4CCC4)CC2)CC3)cc1` [Compound 309, 2-(4-butylphenyl)-5-[2-(4-cyclobutylpiperazin-1-yl)-2-oxoethyl]-4,5,6,7-tetrahydro[1,3]thiazolo [5,4-c]pyridine]: less than 1000 nM.
`O=C(CN1CCc2nc(-c3ccc(F)c(Cl)c3)sc2C1)N1CCN(C2CCC2)CC1` [Compound 346, 2-(3-chloro-4-fluorophenyl)-5-[2-(4-cyclobutylpiperazin-1-yl)-2-oxoethyl]-4,5,6,7-tetrahydro[1,3]thiazolo [5,4-c]pyridine]: the Ki is less than 1000 nM.
`COc1cc(F)c(-c2nc3c(s2)CN(CC(=O)N2CCN(C4CCC4)CC2)CC3)cc1F` [Compound 323, 5-[2-(4-cyclobutylpiperazin-1-yl)-2-oxoethyl]-2-(2,5-difluoro-4-methoxyphenyl)-4,5,6,7-tetrahydro[1,3]thiazolo [5,4-c]pyridine]: the Ki was less than 1000 nM.
With `CC(C)N1CCN(C(=O)CN2CCc3cc(-c4cncnc4)ccc3C2)CC1` [Compound 387, 2-[2-(4-isopropylpiperazin-1-yl)-2-oxoethyl]-6-pyrimidin-5-yl-1,2,3,4-tetrahydroisoquinoline], the Ki is less than 1000 nM.
On to `O=C(CN1CCc2cc(-c3ccc4c(c3)OCCO4)ccc2C1)N1CCN(C2CCCC2)CC1` [Compound 381, 2-[2-(4-cyclopentylpiperazin-1-yl)-2-oxoethyl]-6-(2,3-dihydro-1,4-benzodioxin-6-yl)-1,2,3,4-tetrahydroisoquinoline], for which the inhibitory constant (Ki) is less than 1000 nM.
Consider `O=C(CN1CCc2cc(-c3cncnc3)ccc2C1)N1CCN(C2CCCCC2)CC1` [Compound 393, 2-[2-(4-cyclohexylpiperazin-1-yl)-2-oxoethyl]-6-pyrimidin-5-yl-1,2,3,4-tetrahydroisoquinoline], for which the inhibition constant (Ki) is less than 1000 nM.
Same read-out and setting: the same measure for `O=C(CN1CCc2nc(-c3cccc(F)c3)sc2C1)N1CCN(C2CCC2)CC1` [Compound 298, 5-[2-(4-cyclobutylpiperazin-1-yl)-2-oxoethyl]-2-(3-fluorophenyl)-4,5,6,7-tetrahydro[1,3]thiazolo [5,4-c]pyridine]: less than 1000 nM; for `COc1ccc(-c2nc3c(s2)CN(CC(=O)N2CCN(C4CCC4)CC2)CC3)cc1OC` [Compound 329, 5-[2-(4-cyclobutylpiperazin-1-yl)-2-oxoethyl]-2-(3,4-dimethoxyphenyl)-4,5,6,7-tetrahydro[1,3]thiazolo [5,4-c]pyridine]: less than 1000 nM.
`O=C(CN1CCc2nc(-c3ccccc3Cl)sc2C1)N1CCN(C2CCC2)CC1` [Compound 357, 2-(2-chlorophenyl)-5-[2-(4-cyclobutylpiperazin-1-yl)-2-oxoethyl]-4,5,6,7-tetrahydro[1,3]thiazolo [5,4-c]pyridine]: the Ki was less than 1000 nM.
